# Assay results taken from paper PMC11129181, “Histidine-Covalent Stapled Alpha-Helical Peptides Targeting hMcl-1” (Journal of Medicinal Chemistry, 2024).
# Like-named read-outs stand apart in the source and are kept apart here. Marks after values point to notes of the source that are not given here. Positions of bridges follow the written chain, without caps; N, C: chain ends. Non-standard residues stand in square brackets, D forms with d. Residues, ends and D or L forms follow the SMILES beside them. *: point of attachment. Benzoyl(2-OMe,5-SO2F) = COc1ccc(S(=O)(=O)F)cc1C(=O)*; Ala(1H-tetrazol-5-yl) = N[C@@H](Cc1nnn[nH]1)C(=O)O; S5 = C=CCCC[C@](C)(N)C(=O)O; Dap = NC[C@H](N)C(=O)O
# How the values were obtained:
# A549 NucLight Red cells = assay: Lytic effect on A549 NucLight Red cells (IncuCyte S3); assay type: cell-based, human; details: for lytic effect on A549 NucLight Red cells: 100 μM, images 20 min after exposure; for lytic effect on A549 cells: high concentrations, nearly immediate cell bursting after exposure, fluorescence microscopy
# From the text: Amphipathic alpha-helical peptides have been reported to cause nonspecific membrane disruption events due to their constrained helical structure and amino acid composition.[2],[5],[37],[38] Lytic peptides in fact are highly efficient at binding and disrupting the negatively charged membrane of cells, as they are usually amphipathic and positively charged.[2],[5],[37],[38] Key determinants for cell permeability and the lytic effect are the combination of relatively high hydrophobic content and the number of positively charged residues in addition to the position of the staple within the alpha-helical peptide. Therefore, our design strategy included peptides with varying net charges and explored different positions of the staple within the peptide (Tables 1 and 2; Figure 2). To assess cellular permeability and to detect eventual nonspecific cell lytic effects, we tested selected stapled covalent peptides against the human nonsmall cell lung cancer (NSCLC) cell line A549 (Figure 7). To enhance live cell analysis, we used a cell line that was fluorescently labeled (A549 NucLight Red cells, Essen Bioscience), and cells were monitored for cell lysis via fluorescence microscopy using the IncuCyte S3 live-cell analysis system (Figure 7). […] Considering those data, together with the affinity for hMcl-1(172–323), alpha-helical content (Table 2), and covalent complex formation as detected by SDS gel electrophoresis, mass spectrometry, NMR, and X-ray crystallography, we selected agent 155H1, which was further tested in preliminary cell permeability and cellular efficacy studies.
# Figure 7 Lytic effect of stapled peptides on the NSCLC A549 NucLight Red cells detected via the IncuCyte S3 live-cell analysis system. The schematic illustrations depict the lytic (panel A) and nonlytic (panel B) effects of stapled agents on the cells. Representative images of cells collected 20 min after exposure to 100 μM lytic stapled compound 1 (panel A) or nonlytic stapled peptide 155H1 (panel B), along with untreated (DMSO only) cells as a control. Note: Images were taken 20 min after plates were placed inside the IncuCyte S3 to minimize condensation that can affect image quality. The scale bar denotes 100 μm.
# Nonsmall cell lung cancer (NSCLC) A549 NucLight Red cells were purchased from Essen Bioscience and cultured in Ham’s F-12 nutrient mixture with GlutaMAX-1 (Gibco) supplemented with 10% FBS and 0.5 μg/mL puromycin. Cells were maintained in a humidified incubator at 37 °C in 5% CO2. These cells have nuclei-fluorescently labeled red. Anti-hMcl-1 and anti-β-tubulin antibodies were purchased from Cell Signaling Technology (#5453) and Santa Cruz Biotechnology (sc-58884), respectively. HRP-conjugated goat antimouse and antirabbit secondary antibodies were purchased from ThermoFisher Scientific.
# hMcl-1(172–323) = molecular target: T1, hMcl-1(172–323) (Homo sapiens, UniProt Q07820); assay: DELFIA displacement of biotinylated-BH3 peptide from hMcl-1(172–323); assay type: binding
# T1 construct: made in house; host or cells: E. coli BL21 (DE3) gold pLysS
# T1 sequence (Q07820 172-323): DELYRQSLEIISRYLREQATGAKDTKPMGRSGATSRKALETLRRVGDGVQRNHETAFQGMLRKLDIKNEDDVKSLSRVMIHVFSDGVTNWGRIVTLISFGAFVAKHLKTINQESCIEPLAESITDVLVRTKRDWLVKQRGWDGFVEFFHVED
# Method: At the end of a 2 h incubation, plates were washed 3 times. Subsequently, a solution of 6His-tagged-hMcl-1(172–323) or 6His-tagged-hBfl-1(1–149) protein and the test peptides were preincubated for 2 h and added to the washed streptavidin-coated plates along with a Eu–N1-labeled anti-6xHis antibody (PerkinElmer, 1:2000) solution and further incubated for 2 h on a microplate shaker. Plates were then washed 3 times, and each well was incubated with 200 μL of the enhancement solution (PerkinElmer) for 10 min. Fluorescent readings (VICTOR X5 microplate reader) were then measured by using the excitation and emission wavelengths of 340 and 615 nm, respectively. Fluorescent counts were normalized to those of DMSO wells and reported as % inhibition, and Prism 10 (GraphPad) was used to calculate the IC50 values. Protein, peptide, and antibody solutions were prepared in a DELFIA assay buffer (PerkinElmer), and all of the incubations were performed at room temperature. Each well received a final DMSO concentration of 1%. The final concentrations of 6His-tagged-hMcl-1(172–323) and 6His-tagged-hBfl-1(1–149) used were 16 and 15 nM, respectively.
# [1] = Aqueous solubility (observation); assay type: physicochemical; details: observed during CD measurements
# From the text: (§1) Furthermore, to verify that the peptides preferentially assumed a stabilized alpha-helical conformation in the stapled version compared to the linear peptide, we performed CD measurements. Typical curves for the linear peptide (138E12, blue) and a stapled peptide (155H1, red) are reported in Figure 3, while CD data for all other peptides are reported as the Supporting Information (Supporting Figures S3–S14). Using these measurements and the software BeStSel (https://bestsel.elte.hu),[34] we could calculate the percentage of alpha-helical content for each peptide (Table 2). Most stapled peptides, perhaps except compound 4 and compound 7, assumed nearly complete alpha-helical conformation in aqueous buffer (Table 2 and Supporting Figures S3–S14).
# [2] = Circular dichroism, percentage of alpha-helix (BeStSel); assay type: physicochemical; details: 25 °C
# From the text: as §1
# Circular dichroism spectra were acquired on a Jasco 815 spectropolarimeter. Samples were prepared in MQ Water or in 15 mM phosphate buffer, pH 7.5. The experiments were conducted at 25 °C, using a 1 mm-path length quartz cell to record data from 190 to 260 nm in 1 nm increments. The response time was 2 s. The data were then converted to Δε(M^–1·cm^–1), and the percentage of alpha-helix was calculated using BeStSel (https://bestsel.elte.hu) software.[34]
# [3] = DELFIA displacement assay, n = 2, 16 nM 6His-hMcl-1(172–323), protein and peptide preincubated 2 h, room temperature, 1% DMSO, read-out: IC50 (nM) hMcl-1(172–323)
compound,measurement,setting,value
"CC[C@H](C)[C@H](NC(=O)[C@H](CNC(=O)c1cc(S(=O)(=O)F)ccc1OC)NC(C)=O)C(=O)N[C@@H](C)C(=O)N[C@@H](CCC(=O)O)C(=O)N[C@@H](CCC(N)=O)C(=O)N[C@@H](CC(C)C)C(=O)N[C@@H](CCCNC(=N)N)C(=O)N[C@@]1(C)CCC/C=C\CCC[C@@](C)(C(=O)N[C@@H](Cc2ccccc2)C(N)=O)NC(=O)[C@H](CC(=O)O)NC(=O)CNC(=O)[C@H]([C@@H](C)CC)NC1=O [11 (155H1)] (Ac-[Dap](Benzoyl(2-OMe,5-SO2F))IAEQLR[S5]IGD[S5]F-NH2; staple (Z) 8-12)",lytic effect on A549 NucLight Red cells,A549 NucLight Red cells,nonlytic
"CC[C@H](C)[C@H](NC(=O)[C@H](CCCNC(=N)N)NC(=O)[C@H](CCCNC(=N)N)NC(=O)[C@H](CC(C)C)NC(=O)[C@H](CCC(N)=O)NC(=O)[C@]1(C)CCC/C=C/CCC[C@](C)(NC(C)=O)C(=O)N[C@@H](CNC(=O)c2cc(S(=O)(=O)F)ccc2OC)C(=O)N[C@@H]([C@@H](C)CC)C(=O)N[C@@H](C)C(=O)N1)C(=O)NCC(=O)N[C@@H](CC(=O)O)C(=O)N[C@@H](CCCNC(=N)N)C(=O)N[C@@H](Cc1ccccc1)C(N)=O [compound 1] (Ac-[S5][Dap](Benzoyl(2-OMe,5-SO2F))IA[S5]QLRRIGDRF-NH2; staple (E) 1-5)",lytic effect on A549 NucLight Red cells,A549 NucLight Red cells,lytic
same,lytic effect on A549 cells,A549 NucLight Red cells,lytic effect was observed
"CC[C@H](C)[C@H](NC(=O)[C@H](CCCNC(=N)N)NC(=O)[C@H](CCCNC(=N)N)NC(=O)[C@H](CC(C)C)NC(=O)[C@H](CCC(N)=O)NC(=O)[C@]1(C)CCC/C=C/CCC[C@](C)(NC(C)=O)C(=O)N[C@@H](CNC(=O)c2cc(S(=O)(=O)F)ccc2OC)C(=O)N[C@@H]([C@@H](C)CC)C(=O)N[C@@H](C)C(=O)N1)C(=O)NCC(=O)N[C@@H](Cc1nn[nH]n1)C(=O)N[C@@H](CCCNC(=N)N)C(=O)N[C@@H](Cc1ccccc1)C(N)=O [compound 2] (Ac-[S5][Dap](Benzoyl(2-OMe,5-SO2F))IA[S5]QLRRIG[Ala(1H-tetrazol-5-yl)]RF-NH2; staple (E) 1-5)",lytic effect on A549 cells,A549 NucLight Red cells,lytic effect was observed
same,IC50,hMcl-1(172–323),633 ± 30 nM
"CC[C@H](C)[C@H](NC(=O)[C@H](C)NC(=O)[C@H](CCCNC(=N)N)NC(=O)[C@H](CC(C)C)NC(=O)[C@H](CCC(N)=O)NC(=O)[C@]1(C)CCC/C=C/CCC[C@](C)(NC(C)=O)C(=O)N[C@@H](CNC(=O)c2cc(S(=O)(=O)F)ccc2OC)C(=O)N[C@@H]([C@@H](C)CC)C(=O)N[C@@H](C)C(=O)N1)C(=O)NCC(=O)N[C@@H](CC(=O)O)C(=O)N[C@@H](C)C(=O)N[C@@H](Cc1ccccc1)C(N)=O [compound 4] (Ac-[S5][Dap](Benzoyl(2-OMe,5-SO2F))IA[S5]QLRAIGDAF-NH2; staple (E) 1-5)",aqueous solubility,[1],limited aqueous solubility
"CC[C@H](C)[C@H](NC(=O)[C@H](CNC(=O)c1cc(S(=O)(=O)F)ccc1OC)NC(C)=O)C(=O)N[C@@H](C)C(=O)N[C@@]1(C)CCC/C=C\CCC[C@@](C)(C(=O)N[C@H](C(=O)NCC(=O)N[C@@H](CC(=O)O)C(=O)N[C@@H](C)C(=O)N[C@@H](Cc2ccccc2)C(N)=O)[C@@H](C)CC)NC(=O)[C@H](CCCNC(=N)N)NC(=O)[C@H](CC(C)C)NC(=O)[C@H](CCC(N)=O)NC1=O [compound 7] (Ac-[Dap](Benzoyl(2-OMe,5-SO2F))IA[S5]QLR[S5]IGDAF-NH2; staple (Z) 4-8)",aqueous solubility,[1],limited aqueous solubility
"Ac-Dap(2MeO,5FSB)IAEQLRRIGDRF-CONH2 (Ac-[Dap](2‑methoxy‑5‑fluorosulfonylbenzoyl)IAEQLRRIGDRF-NH2) [138E12, previously reported linear Lys 234-covalent BH3 peptide with aryl-sulfonyl fluoride, reference compound]",IC50,hMcl-1(172–323); [3],18 ± 4 nM
"Ac-Dap(2MeO,5FSB)IAEQLRRIGDRF-CONH2 [138E12, previously reported linear Lys 234-covalent BH3 peptide with aryl-sulfonyl fluoride, reference compound]",% alpha-helix,"[2]; CD spectra measured both in water and in 15 mM phosphate buffer pH 7.5, BeStSel",48.3 ^b %
"Ac-Dap(2MeO,5FSB)IXEQLXRIGDRF-CONH2 (sidechain bridge or staple) ({Ac-Dap(2MeO,5FSB)}-I[S5]EQL[S5]RIGDRF-NH2; staple 2-6) [compound 10, stapled covalent BH3 peptide, staple at positions 4 and 8]",% alpha-helix,"[2]; CD, 190–260 nm, MQ water or 15 mM phosphate buffer pH 7.5, calculated using BeStSel",100%
same,IC50,hMcl-1(172–323); [3],174 ± 1 nM
